# Measured values published in patent US8450305B2, “Macrocyclic compounds useful as inhibitors of kinases and HSP90” (Universite de Strasbourg, priority 2006, dated 2013).
# Where two headings read alike, the source gives them in different places.
# Legend:
# HCC1954 tumor cells = experiment: Cytotoxicity, MTS assay, HCC1954; format: cell-based; details: Homo sapiens, 72 hours
# Protocol: (§1) Tumor cells were grown as adherent monolayers at 37° C. in a humidified atmosphere (5% CO2, 95% air). The culture medium was RPMI 1640 containing 2 mM L-glutamine (Ref BE12-702F, Cambrex, Verviers, Belgium) and supplemented with 10% fetal bovine serum (Ref DE14-801E, Cambrex). For experimental use, the adherent tumour cells were detached from the culture flask by a 5-minute treatment with trypsin-versene (Ref O2-007E, Cambrex), diluted in Hanks' medium without calcium or magnesium (Ref BE10-543F, Cambrex) and neutralized by addition of complete culture medium. Before use, cells were counted in a hemocytometer and their viability were assessed by 0.25% trypan blue exclusion. Mycoplasma detection was performed using the MycoAlert® Mycoplasma Detection Kit (Ref LT07-318, Cambrex) in accordance with the manufacturer instructions. The MycoAlert®Assay is a selective biochemical test that exploits the activity of mycoplasmal enzymes. The viable mycoplasma are lysed and the enzymes react with the MycoAlert® substrate catalyzing the conversion of ADP to ATP. By measuring the level of ATP in a sample both before and after the addition of the MycoAlert® substrate a ratio can be obtained which is indicative of the presence or absence of mycoplasma. The mycoplasma test was assayed in duplicate from the culture supernatants of the cell lines and compared to negative and positive controls (MycoAlert® Assay Control Set, Ref LT07-518, Cambrex) (Internal Standard Operating Procedure No TEC-007/002). Both HCC1954 and SK-BR-3 tumour cells (5,000 cells per well) were plated in 96-well flat-bottom microtitration plates (Ref 167008, Nunc, Dutscher, Brumath, France) and incubated at 37° C. for 24 hours before treatment in 190 μl of drug-free culture medium supplemented with 10% FBS. Both HCC1954 and SK-BR-3 tumour cell lines were incubated for 72 hours with […], in ¼ dilution steps, of the test substances (ranging from […]) to be tested as well as paclitaxel (ranging from 10^−7 to 10^−12 M). The cells (190 μl) will be incubated in a 200 μl final volume of culture medium supplemented with 10% FBS containing test substances at 37° C. under 5% CO2. One experiment is performed, each concentration being issued from quadruplicate. Control cells are treated with corresponding vehicle alone. At the end of treatments, the cytotoxic activity is evaluated by a MTS assay. […] Like MTT, MTS is bioreduced by cells into a formazan product that is directly soluble in culture medium without processing, unlike MTT.
# (§2) At the end of the cells treatment, 40 μl of a 0.22 μm filtered freshly combined solution of MTS (20 ml at 2 mg/ml, Ref G1111A, Promega, Charbonnières, France) and PMS (1 ml at 0.92 mg/ml, Ref P9625, Sigma) in Dulbecco's Phosphate Buffered Saline (DPBS, Ref 17-513F, Cambrex), were added in each well. Culture plates were incubated for 2 h at 37° C. Absorbency (OD) will be measured at 490 nm in each well using VICTOR^3™ 1420 multilabeled counter (Wallac, PerkinElmer, Courtaboeuf, France).
# SK-BR-3 tumor cells = experiment: Cytotoxicity, MTS assay, SK-BR-3; format: cell-based; details: Homo sapiens, 72 hours
# Protocol: as §1, §2
# SRC = biological target: T1, SRC (Homo sapiens, UniProt P12931); experiment: Radiometric protein kinase assay, SRC; format: biochemical; details: 1 μM ATP; read-out: Inhibitory activity (IC50:μM) SRC
# T1 construct: host or cells: Sf9 insect cells (baculovirus)
# Excerpt: (§3) All protein kinases were expressed in Sf9 insect cells as human recombinant GST-fusion proteins or His-tagged proteins by means of the baculovirus expression system. Kinases were purified by affinity chromatography using either GSH-agarose (Sigma) or Ni-NTH-agarose (Qiagen). The purity of each kinase was checked by SDS-PAGE/silver staining and the identity of each kinase was verified by western blot analysis with kinase specific antibodies or by mass spectroscopy.
# (§4) A radiometric protein kinase assay (^33PanQinase® Activity Assay) was used for measuring the kinase activity of the 24 protein kinases. All kinase assays were performed in 96-well FlashPlates™ from Perkin Elmer (Boston, Mass., USA) in a 50 μl reaction volume. The reaction cocktail was pipetted in 4 steps in the following order: • 20 μl of assay buffer • 5 μl of ATP solution (in H2O) • 5 μl of test compound (in 10% DMSO) • 10 μl of substrate/10 […] of enzyme solution (premixed)
# (§5) The assay for all enzymes contained 60 mM HEPES-NaOH, pH 7.5, 3 mM MgCl2, 3 mM MnCl2, 3 μM Na-orthovanadate, 1.2 mM DTT, 50 μg/ml PEG20000, 1 μM [γ-^33P]-ATP (approx. 5×10^05 cpm per well).
# (§6) For the 24 kinase assays, the following amounts of enzyme and substrate were used per well:
# (§7) The reaction cocktails were incubated at 30° C. for 80 minutes. The reaction was stopped with 50 μl of 2% (v/v) H3PO4, plates were aspirated and washed two times with 200 μl of 0.9% (w/v) NaCl or 200 μl H2O. Incorporation of ^33Pi was determined with a microplate scintillation counter (Microbeta Trilux, Wallac).
# (§8) The median value of the counts in column 1 (n=8) of each assay plate was defined as “low control”. This value reflects unspecific binding of radioactivity to the plate in the absence of a protein kinase but in the presence of the substrate. The median value of the counts in column 7 of each assay plate (n=8) was taken as the “high control”, i.e. full activity in the absence of any inhibitor. The difference between high and low control was taken as 100% activity.
# (§9) As part of the data evaluation the low control value from a particular plate was subtracted from the high control value as well as from all 80 “compound values” of the corresponding plate. The residual activity (in %) for each well of a particular plate was calculated by using the following formula: Res. Activity (%)=100×[(cpm of compound−low control)/(high control−low control)]
# (§10) The residual activities for each concentration and the compound IC50 values were calculated using Quattro Workflow V2.1.0.0 (Quattro Research GmbH, Munich, Germany; www.quattro-research.com). The model used was “Sigmoidal response (variable slope)” with parameters “top” fixed at 100% and “bottom” at 0%.
# HSP90 = HSP90 (Homo sapiens, UniProt P07900); experiment: HSP90 affinity, competition assay with geldanamycin; format: binding
# panel of 24 kinase = experiment: Radiometric protein kinase assay (33PanQinase), panel of 24 kinases; format: biochemical, human; details: at 10 μM
# Excerpt: as §3
# A radiometric protein kinase assay (^33PanQinase® Activity Assay) was used for measuring the kinase activity of the 24 protein kinases.
# as §5, §7, §8, §9
# [1] = rcm bond, Grubbs II, toluene, 2.0 mM, 80.0 °C
# Aurora-A = biological target: T2, Aurora-A (Homo sapiens, UniProt O14965); experiment: Radiometric protein kinase assay, Aurora-A; format: biochemical; details: 1 μM ATP; read-out: Inhibitory activity (IC50:μM) Aurora-A
# T2 construct: host or cells: Sf9 insect cells (baculovirus)
# T2 sequence (O14965 1-403): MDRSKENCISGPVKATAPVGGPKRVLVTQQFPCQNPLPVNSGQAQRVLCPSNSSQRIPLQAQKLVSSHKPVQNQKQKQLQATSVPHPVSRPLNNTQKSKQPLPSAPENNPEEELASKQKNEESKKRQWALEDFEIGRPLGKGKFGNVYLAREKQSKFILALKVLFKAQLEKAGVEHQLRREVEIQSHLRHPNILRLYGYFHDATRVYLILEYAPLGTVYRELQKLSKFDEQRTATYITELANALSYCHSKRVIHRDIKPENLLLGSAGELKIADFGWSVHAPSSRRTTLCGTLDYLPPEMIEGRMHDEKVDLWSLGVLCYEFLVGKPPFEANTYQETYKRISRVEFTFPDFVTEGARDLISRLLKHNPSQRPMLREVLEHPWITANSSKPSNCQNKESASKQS
# Excerpt: as §3, §4, §5, §6, §7, §8, §9, §10
# IGF1-R = biological target: T3, IGF1-R (Homo sapiens, UniProt P08069); experiment: Radiometric protein kinase assay, IGF1-R; format: biochemical; details: 1 μM ATP; read-out: Inhibitory activity (IC50:μM) IGF1-R
# T3 construct: host or cells: Sf9 insect cells (baculovirus)
# Excerpt: as §3, §4, §5, §6, §7, §8, §9, §10
# EGF-R = biological target: T4, EGF-R (Homo sapiens, UniProt P00533); experiment: Radiometric protein kinase assay, EGF-R; format: biochemical; details: 1 μM ATP; read-out: Inhibitory activity (IC50:μM) EGF-R
# T4 construct: host or cells: Sf9 insect cells (baculovirus)
# Excerpt: as §3, §4, §5, §6, §7, §8, §9, §10
# T3 sequence (P08069 31-1367): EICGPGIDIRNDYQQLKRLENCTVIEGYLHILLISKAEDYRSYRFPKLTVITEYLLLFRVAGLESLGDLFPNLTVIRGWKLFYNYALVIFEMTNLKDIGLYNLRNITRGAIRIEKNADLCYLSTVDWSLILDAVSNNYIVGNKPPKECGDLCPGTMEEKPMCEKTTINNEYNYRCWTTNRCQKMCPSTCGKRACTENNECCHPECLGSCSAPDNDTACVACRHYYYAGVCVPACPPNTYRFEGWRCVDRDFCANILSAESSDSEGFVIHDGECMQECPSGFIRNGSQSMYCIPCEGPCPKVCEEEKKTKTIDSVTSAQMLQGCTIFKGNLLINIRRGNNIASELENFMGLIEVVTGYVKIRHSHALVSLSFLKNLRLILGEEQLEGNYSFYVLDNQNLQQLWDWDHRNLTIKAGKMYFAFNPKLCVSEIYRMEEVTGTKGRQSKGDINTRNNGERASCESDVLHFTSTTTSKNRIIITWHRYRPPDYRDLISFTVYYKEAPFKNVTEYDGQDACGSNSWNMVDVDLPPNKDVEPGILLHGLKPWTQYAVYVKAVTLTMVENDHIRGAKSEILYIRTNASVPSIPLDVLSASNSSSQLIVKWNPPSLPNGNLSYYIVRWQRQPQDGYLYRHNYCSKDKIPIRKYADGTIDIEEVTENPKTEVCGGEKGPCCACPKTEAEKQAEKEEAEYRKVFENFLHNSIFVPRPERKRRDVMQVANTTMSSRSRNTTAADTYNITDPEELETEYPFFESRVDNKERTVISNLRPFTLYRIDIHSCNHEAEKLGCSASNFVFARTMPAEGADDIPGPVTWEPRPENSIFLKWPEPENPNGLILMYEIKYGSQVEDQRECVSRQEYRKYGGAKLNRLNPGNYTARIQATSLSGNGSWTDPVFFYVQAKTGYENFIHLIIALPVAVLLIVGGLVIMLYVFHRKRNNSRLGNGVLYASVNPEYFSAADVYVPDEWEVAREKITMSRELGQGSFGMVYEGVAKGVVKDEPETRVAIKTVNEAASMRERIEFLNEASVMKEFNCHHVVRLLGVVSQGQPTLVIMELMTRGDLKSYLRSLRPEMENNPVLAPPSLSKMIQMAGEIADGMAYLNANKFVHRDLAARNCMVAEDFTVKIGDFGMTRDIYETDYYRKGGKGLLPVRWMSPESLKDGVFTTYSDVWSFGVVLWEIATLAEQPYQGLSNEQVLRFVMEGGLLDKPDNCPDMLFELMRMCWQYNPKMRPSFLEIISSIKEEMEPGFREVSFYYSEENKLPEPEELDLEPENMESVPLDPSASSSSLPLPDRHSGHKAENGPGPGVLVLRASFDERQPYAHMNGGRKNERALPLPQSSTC
# T1 sequence (P12931 whole entry): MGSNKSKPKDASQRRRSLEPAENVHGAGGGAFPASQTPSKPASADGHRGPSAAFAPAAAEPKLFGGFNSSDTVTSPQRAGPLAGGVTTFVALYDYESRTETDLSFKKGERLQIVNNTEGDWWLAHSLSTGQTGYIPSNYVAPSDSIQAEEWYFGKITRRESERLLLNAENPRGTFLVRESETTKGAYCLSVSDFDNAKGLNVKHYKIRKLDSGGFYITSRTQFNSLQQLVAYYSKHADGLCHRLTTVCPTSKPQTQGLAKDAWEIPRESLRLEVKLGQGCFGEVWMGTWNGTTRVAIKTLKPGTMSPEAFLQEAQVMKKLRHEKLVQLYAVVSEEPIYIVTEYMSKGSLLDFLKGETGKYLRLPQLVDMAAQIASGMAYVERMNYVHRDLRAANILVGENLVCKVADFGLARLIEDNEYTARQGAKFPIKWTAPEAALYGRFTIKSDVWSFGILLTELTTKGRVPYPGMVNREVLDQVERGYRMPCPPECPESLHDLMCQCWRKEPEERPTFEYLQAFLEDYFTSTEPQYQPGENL
# T4 sequence (P00533 25-1210): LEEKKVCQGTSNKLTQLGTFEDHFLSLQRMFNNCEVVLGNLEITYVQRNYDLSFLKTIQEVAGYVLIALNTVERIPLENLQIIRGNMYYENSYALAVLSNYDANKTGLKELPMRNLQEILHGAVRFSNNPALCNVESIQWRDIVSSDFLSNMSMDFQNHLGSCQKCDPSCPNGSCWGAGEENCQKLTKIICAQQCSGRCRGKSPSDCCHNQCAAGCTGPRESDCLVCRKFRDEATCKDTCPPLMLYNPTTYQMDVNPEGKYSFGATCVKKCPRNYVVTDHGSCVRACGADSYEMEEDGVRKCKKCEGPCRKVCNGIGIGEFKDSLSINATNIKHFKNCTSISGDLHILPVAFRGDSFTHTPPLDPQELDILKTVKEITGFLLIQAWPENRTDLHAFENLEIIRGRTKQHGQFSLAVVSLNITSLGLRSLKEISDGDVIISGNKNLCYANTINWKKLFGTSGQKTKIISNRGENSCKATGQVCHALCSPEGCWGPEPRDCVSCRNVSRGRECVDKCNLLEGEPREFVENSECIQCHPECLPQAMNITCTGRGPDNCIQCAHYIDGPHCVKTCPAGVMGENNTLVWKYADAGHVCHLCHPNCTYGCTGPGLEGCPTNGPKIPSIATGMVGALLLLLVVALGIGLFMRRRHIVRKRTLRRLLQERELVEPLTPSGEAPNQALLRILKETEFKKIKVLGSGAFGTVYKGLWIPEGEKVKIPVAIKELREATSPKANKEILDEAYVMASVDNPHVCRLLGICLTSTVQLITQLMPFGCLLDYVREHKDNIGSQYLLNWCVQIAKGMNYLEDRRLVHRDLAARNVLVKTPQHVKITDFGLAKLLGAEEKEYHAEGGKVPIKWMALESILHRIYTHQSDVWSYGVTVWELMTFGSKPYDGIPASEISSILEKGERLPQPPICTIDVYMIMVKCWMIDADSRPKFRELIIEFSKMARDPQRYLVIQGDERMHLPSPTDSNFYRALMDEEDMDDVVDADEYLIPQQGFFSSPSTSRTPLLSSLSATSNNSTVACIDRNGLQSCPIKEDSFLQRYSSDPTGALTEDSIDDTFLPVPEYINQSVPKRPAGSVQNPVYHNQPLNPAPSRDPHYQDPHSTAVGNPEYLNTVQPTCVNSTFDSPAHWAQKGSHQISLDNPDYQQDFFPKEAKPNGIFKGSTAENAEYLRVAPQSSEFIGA
SMILES,EC50 (HCC1954 tumor cells) [µM],EC50 (SK-BR-3 tumor cells) [µM],further results
O=C1OCC/C=C\CC/C=C/C(=NOCC(=O)N2CCCCC2)Cc2c(Cl)c(O)cc(O)c21 [2a-5],9.5,2.5,
COC1CC/C=C/CCOC(=O)c2c(O)cc(O)c(Cl)c2C/C(=N/OCC(=O)N2CCCCC2)C1 (centres unmarked) [2a-10],> 10,> 10,
COC1CC/C=C/C[C@H](c2ccccc2)OC(=O)c2c(O)cc(O)c(Cl)c2CC(=O)C1 (some centres unmarked) [A2],,,IC50 (SRC): 8 µM
C=CCC/C=C/C(Cc1c(Cl)c(O)cc(O)c1C(=O)OCCC=C)=NOCC(=O)N1CCCCC1 [2a-7],> 10,> 10,
"C[C@@H]1C/C=C/CC/C=C/C(=O)Cc2c(Cl)c(O)cc(O)c2C(=O)O1 [pochonin D, reference compound]",,,IC50 (HSP90): 0.08 µM; inhibition in a panel of 24 kinase (panel of 24 kinase): no significant activity
C[C@@H]1C/C=C/CC/C=C/C(=O)Cc2c(Cl)c(O)cc(O)c2C(=O)O1 [2a-14],1.2,2.8,
C[C@@H]1CC=CCC/C=C/C(=O)Cc2c(Cl)c(OCOCC[Si](C)(C)C)cc(OCOCC[Si](C)(C)C)c2C(=O)O1,,,"ring closure, yield of all isomers ([1]; from C=CCC/C=C/C(=O)Cc1c(Cl)c(OCOCC[Si](C)(C)C)cc(OCOCC[Si](C)(C)C)c1C(=O)O[C@H](C)CC=C, 12.0 h): 87%"
O=C1Cc2c(Cl)c(O)cc(O)c2C(=O)O[C@H](c2ccccc2)C/C=C/CCC(Cl)C1 (some centres unmarked) [A3],,,IC50 (Aurora-A): 12 µM
CCOCOc1cc2c(c(OCOCC)c1)C(=O)O[C@H](C)CC=CCCC=CC(=O)C2,,,"ring closure, yield of all isomers ([1]; from C=CCCC=CC(=O)Cc1cc(OCOCC)cc(OCOCC)c1C(=O)O[C@H](C)CC=C, 2 steps): 40%"
O=C(CON=C1/C=C/CC/C=C/CCOC(=O)c2c(O)cc(O)c(Cl)c2C1)NCc1ccccc1 [2a-17],8.5,3.5,
O=C1/C=C/CCC2OC2C[C@H](c2ccccc2)OC(=O)c2c(O)cc(O)c(Cl)c2C1 (some centres unmarked) [A5],,,IC50 (IGF1-R): 11 µM
O=C1OCC/C=C/CC/C=C/C(=NOCC(=O)N2CCOCC2)Cc2c(Cl)c(O)cc(O)c21 [2a-18],> 10,> 10,
O=C1OCC/C=C/CC/C=C/C(=NOCC(=O)N2CCCCCC2)Cc2c(Cl)c(O)cc(O)c21 [2a-11],0.52,0.31,
"CCOCOc1cc(OCOCC)c2c(c1Cl)CC(=O)C=CCCC=CCC(C)OC2=O (centres unmarked) [2-112, 1-Chloro-2,4-bis-ethoxymethoxy-7-methyl-7,8,11,12-tetrahydro-16H-6-oxa-benzocyclotetradecene-5,15-dione]",,,affinity for / inhibition of HSP90 (in words) (HSP90): no affinity
C[C@@H]1CC=CCC/C=C/C(=O)Cc2c(Cl)c(O[Si](C)(C)C(C)(C)C)cc(O[Si](C)(C)C(C)(C)C)c2C(=O)O1,,,"ring closure, yield of all isomers ([1]; from C=CCC/C=C/C(=O)Cc1c(Cl)c(O[Si](C)(C)C(C)(C)C)cc(O[Si](C)(C)C(C)(C)C)c1C(=O)O[C@H](C)CC=C, 12.0 h): 87%"
O=C(CON=C1/C=C/CC/C=C/CCOC(=O)c2c(O)cc(O)c(Cl)c2C1)NCCO [2a-4],> 10,7.5,
CCOCOc1cc2c(c(OCOCC)c1)C(=O)O[C@H](c1ccccc1)C/C=C/CC/C=C/C(=O)C2 [A-1],,,IC50 (EGF-R): 33 µM; IC50 (IGF1-R): 23 µM; IC50 (SRC): 11 µM
O=C1OCC/C=C/CC/C=C/C(=NOCc2ccccc2)Cc2c(Cl)c(O)cc(O)c21 [2a-3],3,4.5,
CCON=C1/C=C/CC/C=C/CCOC(=O)c2c(O)cc(O)c(Cl)c2C1 [2a-22],9.8,3.8,
O=C1OCC/C=C/CCCC/C(=N/OCC(=O)N2CCCCC2)Cc2c(Cl)c(O)cc(O)c21 [2a-6],5.2,> 10,
CNC(=O)CO/N=C1/C=C/CC/C=C/CCOC(=O)c2c(O)cc(O)c(Cl)c2C1 [2a-8],> 10,> 10,
O=C1OCC/C=C/CC/C=C/C(=NOCC(=O)N2CCNCC2)Cc2c(Cl)c(O)cc(O)c21 [2a-15],> 10,> 10,
O=C(CON=C1/C=C/CC/C=C/CCOC(=O)c2c(O)cc(O)c(Cl)c2C1)NC1CCCCC1 [2a-16],0.45,0.55,
C[C@@H]1C/C=C/CC/C=C/C(=N/OCC(=O)N2CCCCC2)Cc2c(Cl)c(O)cc(O)c2C(=O)O1 [2a-9],0.89,0.45,
"CCOCOc1cc2c(c(OCOCC)c1)C(=O)OC(C)CC=CCCC=CC(=O)C2 (centres unmarked) [2-120, 2,4-Bis-ethoxymethoxy-7-methyl-7,8,11,12-tetrahydro-16H-6-oxa-benzocyclotetradecene-5,15-dione]",,,affinity for / inhibition of HSP90 (in words) (HSP90): no affinity
CCOCOc1cc(OCOCC)c2c(c1Cl)CC(=O)C=CCCC=CC[C@@H](C)OC2=O,,,"ring closure, yield of all isomers ([1]; from C=CCCC=CC(=O)Cc1c(Cl)c(OCOCC)cc(OCOCC)c1C(=O)O[C@H](C)CC=C): 94%"
